The target in one data set is T1, Jen1p (Saccharomyces cerevisiae, UniProt P36035).
T1 sequence (P36035 2-616): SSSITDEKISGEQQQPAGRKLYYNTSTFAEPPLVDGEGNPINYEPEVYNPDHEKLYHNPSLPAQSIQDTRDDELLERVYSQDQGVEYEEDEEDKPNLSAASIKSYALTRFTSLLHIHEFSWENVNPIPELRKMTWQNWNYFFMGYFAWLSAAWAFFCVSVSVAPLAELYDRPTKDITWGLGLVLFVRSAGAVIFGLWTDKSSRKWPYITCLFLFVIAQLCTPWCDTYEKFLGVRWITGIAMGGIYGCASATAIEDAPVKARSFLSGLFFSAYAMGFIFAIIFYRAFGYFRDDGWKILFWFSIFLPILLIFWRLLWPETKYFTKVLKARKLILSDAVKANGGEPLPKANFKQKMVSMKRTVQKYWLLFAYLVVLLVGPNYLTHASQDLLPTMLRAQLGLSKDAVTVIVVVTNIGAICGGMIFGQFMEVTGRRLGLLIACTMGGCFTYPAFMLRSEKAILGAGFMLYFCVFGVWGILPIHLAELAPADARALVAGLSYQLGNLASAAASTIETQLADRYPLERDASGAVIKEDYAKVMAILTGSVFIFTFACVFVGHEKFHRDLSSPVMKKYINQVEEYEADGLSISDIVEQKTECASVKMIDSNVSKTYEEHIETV
The data set can be described thus: […]-lactate uptake in Jen1p-overexpressing yeast. Format: cell-based.

Substrate in the data set “selenite uptake”: O=[Se](O)O
The data set can be described thus: selenite uptake. It counts as cell-based, Saccharomyces cerevisiae. Conditions: competitive with lactate.

Consider `CC(O)C(=O)O` (centres unmarked) [lactate], for which the affinity on Jen1p, expressed as Ki, was 900 µM.

B1: Jen1p (Saccharomyces cerevisiae S288C) (protein)
chain: SSSITDEKISGEQQQPAGRKLYYNTSTFAEPPLVDGEGNPINYEPEVYNPDHEKLYHNPSLPAQSIQDTRDDELLERVYSQDQGVEYEEDEEDKPNLSAASIKSYALTRFTSLLHIHEFSWENVNPIPELRKMTWQNWNYFFMGYFAWLSAAWAFFCVSVSVAPLAELYDRPTKDITWGLGLVLFVRSAGAVIFGLWTDKSSRKWPYITCLFLFVIAQLCTPWCDTYEKFLGVRWITGIAMGGIYGCASATAIEDAPVKARSFLSGLFFSAYAMGFIFAIIFYRAFGYFRDDGWKILFWFSIFLPILLIFWRLLWPETKYFTKVLKARKLILSDAVKANGGEPLPKANFKQKMVSMKRTVQKYWLLFAYLVVLLVGPNYLTHASQDLLPTMLRAQLGLSKDAVTVIVVVTNIGAICGGMIFGQFMEVTGRRLGLLIACTMGGCFTYPAFMLRSEKAILGAGFMLYFCVFGVWGILPIHLAELAPADARALVAGLSYQLGNLASAAASTIETQLADRYPLERDASGAVIKEDYAKVMAILTGSVFIFTFACVFVGHEKFHRDLSSPVMKKYINQVEEYEADGLSISDIVEQKTECASVKMIDSNVSKTYEEHIETV
With B1, the Km in “selenite uptake” worked out at 910 ± 130 µM.

Values taken from paper PMC2982120 (2010).
